We go through 13 compounds from patent US7642269B2, “Pyrrolo[3,2-B]pyridine derivatives and processes for the preparation thereof” (Yuhan Corporation, priority 2005, dated 2010).

Where a name gives a salt, the structure may show the parent alone.

One may read the IC50 as the concentration needed to halve the response being measured. High values mean lower potency, low ones higher potency. What is called ED50 is the dose at which the effect has come halfway, by size or by number of responders. Lower therefore signals greater potency.

One assay deals with T1, H^+/K^+-ATPase (Sus scrofa, UniProt P19156).
T1 construct: used as an enzyme source of the in vitro enzyme reaction assay of proton pump; from tissue; host or cells: hog gastric fundic mucosa (membrane vesicles, lyophilized)
Briefly: Inhibitory effects on proton pump (H^+/K^+-ATPase) activity, hog gastric vesicles. The format is biochemical. Conditions: K^+ stimulated H^+/K^+-ATPase activity, hog gastric vesicle, Pi measured at 620 nm. Put shortly: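 Lyophilized hog gastric vesicles in Pipes/Tris pH 6.1 were preincubated 5 min with compounds (1% DMSO), then run with ATP for 30 min at 37 °C. Released phosphate was measured by malachite green at 620 nm; K^+-stimulated activity taken as the difference between reactions with and without K^+.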

Assay [1] has as its system basal gastric acid secretion. Put plainly: Inhibitory effects on basal gastric acid secretion in pylorus-ligated rats (Shay's rat model). The note with it: oral, one hour before pylorus ligation, total acid output 5 hours after ligation, male SD rats. The format is in vivo, Sprague Dawley (SD) rats. On the procedure:
Inhibitory effects of the compounds of the present invention on basal gastric acid secretion were performed according to Shay's rat model (Shay, H., et al., 1945, gastroenterology, 5, 43-61). Male Sprague Dawley (SD) rats (200±10 g body weight) were divided into 3 groups (n=5) and fasted for 24 hours with free access to water. Control group was orally administered with 0.5% methylcellulose alone and the other groups were orally administered with test compounds suspended in 0.5% methyl-cellulose solution at doses of 1, 3 and 10 mg/kg/5 ml one hour before pylorus ligation. Under ether anesthesia, the abdomens of the rats were incised and then the pylorus was ligated. 5 hours after ligation, the animals were sacrificed, and the gastric contents were collected. The collected contents were centrifuged at 1,000×g for 10 minutes to obtain the gastric juice. Total acid output was measured by 0.01N NaOH volume (ueq/ml) for automatic titration of the gastric juice to pH 7.0 and the ED50s of test compounds were calculated using the Litchfield-Wilcoxon method. % inhibitory activity was calculated from the following equation and the results are shown in Table 2. % inhibitory activity of test compound=(total acid output of control group−total acid output of the group treated with test compounds)/total acid output of control group X 100

The target of assay [2] is T2, hog gastric H^+/K^+-ATPase (Sus scrofa, UniProt P19156).
T2 construct: from tissue; host or cells: hog fundic mucosa (gastric vesicles / microsomes, lyophilized)
Briefly: Reversible inhibition of hog gastric H^+/K^+-ATPase (Washout method). Conditions: for inhibition of H^+/K^+-ATPase activity after washout: activity completely recovered to non-treated group level; for inhibition of H^+/K^+-ATPase activity before washout: at the concentration giving 50% inhibition of the proton pump. The format is biochemical. On the procedure:
3-1. […] Gastric vesicles were prepared from hog fundic mucosa using the method of Saccomani et al. (Saccomani […], Lewin M and Sachs G, Characterization of gastric mucosal membranes. IX. Fraction and purification of K-ATPase-containing vesicles by zonal centrifugation and free-flow electrophoresis technique. Biochem. Biophy. Acta. (BBA)-Biomembranes 465, 311-330, 1977.). This material was lyophilized and stored at -70° C. The protein content of gastric vesicles was determined by the Bradford method using bovine serum albumin as a standard (Bradford M M, A rapid and sensitive method for the quantitation of microgram quantities of protein utilizing the principle of protein-dye binding. Anal Biochem. 72, 248-254, 1976). 3-2. Determination of reversible inhibition of hog gastric H^+/K^+-ATPase Activity of H^+/K^+-ATPase in hog microsome (lyophilized vesicle) was measured by the inorganic phosphate released from ATP using an one-step colorimetric detection method at the concentration at which the test compounds have 50% inhibition of the proton pump (Chan […], and Junger K D, A direct colorimetric assay for Ca^2+-stimulated ATPase activity. Anal Biochem, 157, 375-380, 1986). […] Differentiation of their inhibition characteristics from those of omeprazole. Eur. J. Pharmacol., 187, 455-67, 1990). Lyophilized vesicle in the solution of 5 mM Pipes/Tris buffer was pre-incubated in the presence of the test compounds (the compounds of Examples 50, 64, and 94) at the concentration at which it has 50% inhibition of the proton pump. The previous reaction buffer was added with 2 mM MgCl2, 50 mM KCl, 5 uM Valinomycin, and 0.5 mM ATP and then incubated for 30 minutes at 37° C. The H^+/K^+-ATPase activity was measured using the calorimetric detection method and then the test sample was centrifuged at 100,000×g for 1 hr. The vesicles are present in the form of pellets in the test sample. The supernatant thereof was replaced with the same buffer not having the test compound. […] The H^+/K^+-ATPase activity was also measured using the calorimetric detection method. The H^+/K^+-ATPase activity before washout and after washout in the test sample was analyzed, in comparison with those in the non-treated group.

T2 sequence (P19156 2-1034 limits assumed): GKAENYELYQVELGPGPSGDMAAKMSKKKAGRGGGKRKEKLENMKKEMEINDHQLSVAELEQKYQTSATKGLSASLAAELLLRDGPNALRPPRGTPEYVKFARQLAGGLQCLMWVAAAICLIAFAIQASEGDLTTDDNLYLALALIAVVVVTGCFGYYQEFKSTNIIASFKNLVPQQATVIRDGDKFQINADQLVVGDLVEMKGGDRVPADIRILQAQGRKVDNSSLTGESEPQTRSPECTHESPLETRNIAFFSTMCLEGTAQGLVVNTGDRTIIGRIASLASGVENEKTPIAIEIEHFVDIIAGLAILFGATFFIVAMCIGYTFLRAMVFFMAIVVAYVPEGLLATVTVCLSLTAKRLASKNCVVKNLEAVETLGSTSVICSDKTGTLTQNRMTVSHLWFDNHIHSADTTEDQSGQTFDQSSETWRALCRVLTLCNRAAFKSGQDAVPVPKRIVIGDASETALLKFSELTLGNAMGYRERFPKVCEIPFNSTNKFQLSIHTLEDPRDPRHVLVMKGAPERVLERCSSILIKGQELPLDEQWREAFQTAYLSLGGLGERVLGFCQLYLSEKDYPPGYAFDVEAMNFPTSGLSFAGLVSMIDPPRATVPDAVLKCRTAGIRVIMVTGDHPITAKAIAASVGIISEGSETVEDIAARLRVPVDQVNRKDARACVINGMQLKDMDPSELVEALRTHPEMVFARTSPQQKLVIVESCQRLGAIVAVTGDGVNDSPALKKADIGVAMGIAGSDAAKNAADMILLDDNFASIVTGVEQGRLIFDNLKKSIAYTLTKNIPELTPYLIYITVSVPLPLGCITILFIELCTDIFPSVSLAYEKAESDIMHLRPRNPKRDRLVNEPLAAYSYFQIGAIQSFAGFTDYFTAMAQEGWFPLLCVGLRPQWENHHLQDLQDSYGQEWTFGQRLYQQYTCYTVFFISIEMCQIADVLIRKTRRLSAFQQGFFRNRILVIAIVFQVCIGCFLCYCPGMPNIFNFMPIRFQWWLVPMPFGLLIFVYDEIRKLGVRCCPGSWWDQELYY
T2 sequence (P18434 whole entry partner): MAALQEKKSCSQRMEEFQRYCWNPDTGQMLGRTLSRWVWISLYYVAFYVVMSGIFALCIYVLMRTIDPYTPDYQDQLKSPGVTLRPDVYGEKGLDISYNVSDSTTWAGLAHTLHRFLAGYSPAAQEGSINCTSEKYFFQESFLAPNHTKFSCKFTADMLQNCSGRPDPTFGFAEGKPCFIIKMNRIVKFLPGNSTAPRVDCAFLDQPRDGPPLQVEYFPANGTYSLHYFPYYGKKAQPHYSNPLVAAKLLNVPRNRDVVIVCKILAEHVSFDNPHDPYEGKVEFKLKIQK
T1 sequence (P19156 2-1034 limits assumed): as the sequence (P19156 2-1034 limits assumed) above
T1 sequence (P18434 whole entry partner): as the sequence (P18434 whole entry partner) above

On to `Cc1c(C)n(CC(C)C)c2c(OCc3ccc(F)cc3)ccnc12.Cl` [Example 50, 7-(4-fluorobenzyloxy)-1-isobutyl-2,3-dimethyl-1H-pyrrolo[3,2-b]pyridine hydrochloride], for which half-maximal inhibition against H^+/K^+-ATPase (IC50) required 2440 nM. In assay [1], the ED50 came out at 2.4 mg/kg. In assay [2], the “inhibition of H^+/K^+-ATPase activity after washout” value (shortened to “inhibition … after washout”) was “did not inhibit” and the “inhibition of H^+/K^+-ATPase activity before washout” value amounted to 50%.

`Cc1c(C)n(CC2CCC2)c2c(OCc3ccc(F)cc3)ccnc12.Cl` [Example 55, 1-cyclobutylmethyl-7-(4-fluorobenzyloxy)-2,3-dimethyl-1H-pyrrolo[3,2-b]pyridine hydrochloride]: on H^+/K^+-ATPase, 70 nM corresponded to half-maximal inhibition (IC50). Moreover, it took a dose of 1.3 mg/kg to reach the 50% effect level in assay [1] (ED50).

As to `COCCn1c(C)c(C)c2nccc(OCc3ccc(F)cc3)c21.Cl` [Example 61, 7-(4-fluorobenzyloxy)-1-(2-methoxyethyl)-2,3-dimethyl-1H-pyrrolo[3,2-b]pyridine hydrochloride], at H^+/K^+-ATPase, inhibition was half-maximal at 100 nM (IC50). It took a dose of 3 mg/kg to reach the 50% effect level in assay [1] (ED50).

In the case of `CCCn1c(C)c(C)c2nccc(OCc3ccc(F)cc3)c21.Cl` [Example 62, 7-(4-fluorobenzyloxy)-2,3-dimethyl-1-propyl-1H-pyrrolo[3,2-b]pyridine hydrochloride], the IC50 against H^+/K^+-ATPase turned out to be 110 nM. In assay [1], this compound registered an ED50 of 1.6 mg/kg.

For the compound `Cc1c(C)n(Cc2ccccc2)c2c(OCc3ccc(F)cc3)ccnc12.O=S(=O)(O)c1ccccc1` [Example 64, 1-benzyl-7-(4-fluorobenzyloxy)-2,3-dimethyl-1H-pyrrolo[3,2-b]pyridine benzenesulfonate], in assay [2], the “inhibition … after washout” value was “did not inhibit”.

`C=CCn1c(C)c(C)c2nccc(OCc3ccc(Cl)cc3)c21.Cl` [Example 72, 1-allyl-7-(4-chlorobenzyloxy)-2,3-dimethyl-1H-pyrrolo[3,2-b]pyridine hydrochloride] came in with a half-maximal inhibitory concentration (IC50) against H^+/K^+-ATPase of 30 nM. The compound also displayed an ED50 in assay [1] of 2 mg/kg.

As for `Cc1c(C)n(Cc2ccccc2)c2c(OCc3ccc(Cl)cc3)ccnc12.Cl` [Example 73, 1-benzyl-7-(4-chlorobenzyloxy)-2,3-dimethyl-1H-pyrrolo[3,2-b]pyridine hydrochloride], on H^+/K^+-ATPase, inhibition was half-maximal at 40 nM (IC50). Moreover, the ED50 in assay [1] amounted to 2.5 mg/kg.

On H^+/K^+-ATPase, `COCCn1c(C)c(C)c2nccc(OCc3ccc(Cl)cc3)c21.Cl` [Example 86, 7-(4-chlorobenzyloxy)-1-(2-methoxyethyl)-2,3-dimethyl-1H-pyrrolo[3,2-b]pyridine hydrochloride] yielded an IC50 of 50 nM. The compound further yielded an ED50 in assay [1] of 1.1 mg/kg.

On to `COC(=O)c1ccc(Cn2c(C)c(C)c3nccc(OCc4ccc(Cl)cc4)c32)cc1.Cl` [Example 94, 7-(4-chlorobenzyloxy)-1-(4-methoxycarbonylbenzyl)-2,3-dimethyl-1H-pyrrolo[3,2-b]pyridine hydrochloride], for which the IC50 against H^+/K^+-ATPase was determined as 890 nM. For the same compound, in assay [2], the “inhibition … after washout” value is “did not inhibit” and the “inhibition of H^+/K^+-ATPase activity before washout” value worked out at 50%.

At H^+/K^+-ATPase, `Cc1c(C)n(CC2CC2)c2c(OCc3ccc(Cl)cc3)ccnc12.Cl` [Example 97, 7-(4-chlorobenzyloxy)-1-cyclopropylmethyl-2,3-dimethyl-1H-pyrrolo[3,2-b]pyridine hydrochloride] returned an IC50 of 90 nM. In assay [1], this compound had an ED50 of 2 mg/kg.

The compound `Cc1c(C)n(CC2CC2)c2c(OCc3ccc(Cl)cc3Cl)ccnc12.Cl` [Example 139, 1-cyclopropylmethyl-7-(2,4-dichlorobenzyloxy)-2,3-dimethyl-1H-pyrrolo[3,2-b]pyridine hydrochloride] came in with an IC50 against H^+/K^+-ATPase of 20 nM. The compound further showed an ED50 in assay [1] of 1.6 mg/kg.

On H^+/K^+-ATPase, `Cc1nc2c(C)c(C)n(Cc3ccccc3)c2c(OCc2ccc(F)cc2)c1C` [Example 264, 1-benzyl-7-(4-fluorobenzyloxy)-2,3,5,6-tetramethyl-1H-pyrrolo[3,2-b]pyridine hydrochloride] registered an IC50 of 3070 nM.

In turn, `Cc1nc2c(C)c(C)n(Cc3ccccc3)c2c(NCc2ccc(F)cc2)c1C` [Example 268, N-(1-benzyl-2,3,5,6-tetramethyl-1H-pyrrolo[3,2-b]pyridin-7-yl)-4-fluorobenzylamine hydrochloride] came in with an IC50 at H^+/K^+-ATPase of 1250 nM.
